According to the supplement of paper PMC10307832:

Columns and labels:
Assay in all cases: relative viability (nuclei count vs DMSO), 5 days (fraction); higher = more cells survive
GSK126 + Tozasertib = compound: CC[C@H](C)N1C=C(C2=C(C=C(C=C21)C3=CN=C(C=C3)N4CCNCC4)C(=O)NCC5=C(C=C(NC5=O)C)C)C [GSK126] + Cc1cc(Nc2cc(N3CCN(C)CC3)nc(Sc3ccc(NC(=O)C4CC4)cc3)n2)n[nH]1 [Tozasertib] (partner 0.1 µM)
Method in brief: (§1)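 Values are medians from duplicate plates. Each reflects relative viability, defined as the nuclei count of treated wells over that of vehicle wells. Lung cancer cell lines in 1536-well plates were pin-tool dosed one day after seeding with one drug alone or with a fixed anchor-drug dose plus five library-drug doses (not always all listed) in √10 steps, then fixed, stained and imaged at 4× after 5 days.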

Carboplatin + Alpelisib = compound: C1CC(C1)(C(=O)O)C(=O)O.[NH2-].[NH2-].[Pt+2] [Carboplatin] + Cc1nc(NC(=O)N2CCC[C@H]2C(N)=O)sc1-c1ccnc(C(C)(C)C(F)(F)F)c1 [Alpelisib] (partner 2 µM)
Method in brief: as §1

MLN4924 + AZD7762 = compound: NS(=O)(=O)OC[C@@H]1C[C@@H](n2ccc3c(N[C@H]4CCc5ccccc54)ncnc32)C[C@@H]1O [MLN4924] + NC(=O)Nc1cc(-c2cccc(F)c2)sc1C(=O)N[C@H]1CCCNC1 [AZD7762] (partner 0.2 µM)
Method in brief: as §1

MLN4924 + Navitoclax = compound: NS(=O)(=O)OC[C@@H]1C[C@@H](n2ccc3c(N[C@H]4CCc5ccccc54)ncnc32)C[C@@H]1O [MLN4924] + CC1(C)CCC(c2ccc(Cl)cc2)=C(CN2CCN(c3ccc(C(=O)NS(=O)(=O)c4ccc(N[C@H](CCN5CCOCC5)CSc5ccccc5)c(S(=O)(=O)C(F)(F)F)c4)cc3)CC2)C1 [Navitoclax] (partner 0.5 µM)
Method in brief: as §1

Row | Cell Line | relative viability (GSK126 + Tozasertib; first compound 0.08 µM) | relative viability (GSK126 + Tozasertib; first compound 0.253 µM) | relative viability (GSK126 + Tozasertib; first compound 0.8 µM) | relative viability (GSK126 + Tozasertib; first compound 2.53 µM) | relative viability (GSK126 + Tozasertib; first compound 8 µM) | relative viability (Carboplatin + Alpelisib; first compound 0.08 µM) | relative viability (Carboplatin + Alpelisib; first compound 0.253 µM) | relative viability (Carboplatin + Alpelisib; first compound 0.8 µM) | relative viability (Carboplatin + Alpelisib; first compound 2.53 µM) | relative viability (Carboplatin + Alpelisib; first compound 8 µM) | relative viability (MLN4924 + AZD7762; first compound 0.04 µM) | relative viability (MLN4924 + AZD7762; first compound 0.1265 µM) | relative viability (MLN4924 + AZD7762; first compound 0.4 µM) | relative viability (MLN4924 + AZD7762; first compound 1.265 µM) | relative viability (MLN4924 + AZD7762; first compound 4 µM) | relative viability (MLN4924 + Navitoclax; first compound 0.04 µM) | relative viability (MLN4924 + Navitoclax; first compound 0.1265 µM) | relative viability (MLN4924 + Navitoclax; first compound 0.4 µM) | relative viability (MLN4924 + Navitoclax; first compound 1.265 µM) | relative viability (MLN4924 + Navitoclax; first compound 4 µM)
1 | NCI-H650 | 0.783 | 0.744 | 0.702 | 0.691 | 0.717 | 1.13 | 1 | 1.06 | 0.856 | 0.757 | 1.1 | 0.578 | 0.371 | 0.231 | 0.148 | – | – | – | – | –
2 | SW 1573 | 0.222 | 0.211 | 0.159 | 0.176 | 0.198 | 0.827 | 0.758 | 0.767 | 0.798 | 0.693 | – | – | – | – | – | 0.887 | 1.12 | 0.439 | 0.0613 | 0.0532
3 | COR-L23 | 0.206 | 0.228 | 0.208 | 0.168 | 0.175 | 0.724 | 0.721 | 0.74 | 0.663 | 0.272 | – | – | – | – | – | 0.948 | 0.885 | 0.568 | 0.275 | 0.113
4 | NCI-H2009 | 0.798 | 0.705 | 0.639 | 0.615 | 0.464 | 1.3 | 1.11 | 1.15 | 0.973 | 0.695 | – | – | – | – | – | 0.809 | 0.365 | 0.293 | 0.0903 | 0.0793
5 | NCI-H1563 | – | – | – | – | – | 1.04 | 0.925 | 0.91 | 0.921 | 0.984 | – | – | – | – | – | – | – | – | – | –
6 | NCI-H1703 | – | – | – | – | – | 0.373 | 0.335 | 0.417 | 0.407 | 0.421 | 0.135 | 0.126 | 0.111 | 0.11 | 0.123 | 0.133 | 0.14 | 0.188 | 0.133 | 0.124
7 | NCI-H1648 | 0.386 | – | 0.478 | 0.518 | 0.321 | – | – | – | – | – | 0.777 | 0.727 | 0.526 | 0.33 | 0.223 | – | – | – | – | –
8 | NCI-H1792 | – | – | – | – | – | 0.802 | 0.634 | 0.515 | 0.444 | 0.6 | 0.914 | 0.866 | 1.21 | 0.413 | 0.242 | 0.594 | 0.46 | 0.567 | 0.338 | 0.109
9 | ABC-1 | 0.159 | 0.135 | 0.217 | 0.167 | 0.17 | 1.04 | 1.16 | 1.04 | 0.919 | 0.664 | 0.985 | 1.17 | 0.52 | 0.23 | 0.258 | – | – | – | – | –
10 | IA-LM | – | – | – | – | – | 0.995 | 0.904 | 0.669 | 0.881 | 0.465 | – | – | – | – | – | 0.238 | 0.159 | 0.0746 | 0.0607 | 0.0616
11 | NCI-H1650 | 0.42 | 0.455 | 0.394 | 0.356 | 0.3 | – | – | – | – | – | – | – | – | – | – | 1.02 | 0.739 | 0.438 | 0.156 | 0.176
12 | SW 900 | 0.577 | 0.534 | 0.635 | 0.632 | 0.51 | – | – | – | – | – | – | 0.806 | 0.467 | 0.331 | 0.259 | – | – | – | – | –
13 | A549 | – | – | – | – | – | 0.811 | 0.901 | 0.854 | 0.674 | 0.234 | – | – | – | – | – | 1.02 | 0.991 | 0.197 | 0.04 | 0.0449
14 | NCI-H1299 | – | – | – | – | – | 1.06 | 1.11 | 0.997 | 1.02 | 0.909 | – | – | – | – | – | 1.1 | 0.886 | 0.472 | 0.249 | 0.247
15 | NCI-H1623 | 0.453 | 0.487 | 0.419 | 0.416 | 0.353 | – | – | – | – | – | – | – | – | – | – | – | – | – | – | –
16 | NCI-H2342 | 0.538 | 0.471 | 0.613 | 0.507 | 0.597 | – | – | – | – | – | 0.412 | 0.568 | 0.551 | 0.523 | 0.452 | – | – | – | – | –
17 | NCI-H2023 | 0.387 | 0.342 | 0.339 | 0.266 | 0.184 | 0.65 | 0.546 | 0.601 | 0.397 | 0.193 | – | – | – | – | – | 1 | 0.758 | 0.362 | 0.109 | 0.0667
18 | NCI-H522 | 0.535 | 0.507 | 0.503 | 0.527 | 0.605 | – | – | – | – | – | 0.919 | 0.69 | 0.588 | 0.353 | 0.383 | – | – | – | – | –
19 | ChaGo-K-1 | 0.237 | 0.238 | 0.216 | 0.233 | 0.201 | – | – | – | – | – | 0.861 | 0.701 | 0.508 | 0.193 | 0.159 | 0.708 | 0.574 | 0.394 | 0.309 | 0.326
20 | EBC-1 | – | – | – | – | – | 0.85 | 0.827 | 0.809 | 0.799 | 0.77 | – | – | – | – | – | 0.348 | 0.262 | 0.172 | 0.112 | 0.139
21 | Calu-6 | – | – | – | – | – | 1 | 0.913 | 1.04 | 0.856 | 0.4 | – | – | – | – | – | 0.667 | 0.232 | 0.162 | 0.119 | 0.128
22 | NCI-H520 | 0.594 | 0.426 | 0.48 | 0.443 | 0.352 | 0.894 | 1.06 | 0.897 | 0.908 | 0.737 | – | – | – | – | – | 0.629 | 0.583 | 0.298 | 0.227 | 0.223
